Usually melting point stands for the temperature of the solid-liquid transition.

35 molecules from a melting point compilation (Tetko et al.; mined from patent text by program, amines drawn as free bases though some values may be those of a salt) can be followed below.

Molecule `Cc1nc(N2CCN(c3ccc(F)cc3)CC2)c(C#N)nc1-c1ccccc1` came in with a melting point of 117 to 120 °C. As to `CC(=O)OCC(=O)C1(O)CCC2C3CCC4=CC(=O)C=CC4(C)C3CCC21C` (stereo not given), the melting point was 214 °C. In turn, `COc1cc(/C=C/C(=O)/C=C/c2ccc(O)c(OC)c2)ccc1O` registered a melting point of 82 to 83 °C.

For `CC=C(NC(=O)CC(C)C)C(=O)O`, the melting point was 172 to 174 °C. To `O=c1c2ccc(Cl)cc2[nH]c2c(=O)n(-c3ccc(O)cc3)nc(O)c12` belongs 393 to 395 °C; to `CCOC(=O)c1c(-c2ccccc2)n(C)c(-c2ccccc2)cc1=O`, 177 to 179 °C. To `C[C@@H](n1cnc2cc(-c3ccc(Cl)cc3)sc2c1=O)[C@](O)(Cn1cncn1)c1ccc(Cl)cc1Cl` belongs 132 to 136 °C; to `CCn1c(=O)n(CCCCC(C)(C)O)c(=O)c2[nH]cnc21`, 112 to 114 °C; to `Cc1cnc(CNC(=O)c2sc(N3CCN(CC4CC4)C3=O)nc2C)cn1`, 161 to 163 °C. In turn, `C#CCn1cc(C#N)c(C=O)c1` returned a melting point of 114 °C. To `Fc1ccc2[nH]cc(CCCN3CCN(c4cccc(Cl)c4Cl)CC3)c2c1` belongs 147 to 148 °C; to `Cc1cc2nccn2nc1OCC(C)(C)CCS(N)(=O)=O`, 161 to 162 °C; to `C=C(c1ccc(NC(=O)OC(C)(C)C)c(C)c1)C(F)(F)C(F)(F)C(F)(F)F`, 50 to 53.5 °C.

`CC1(CNC(=O)OCc2ccccc2)Cn2cc([N+](=O)[O-])nc2O1` (stereo not given): the melting point was 171 to 172 °C.

In turn, `O=C(O)c1cn(C2CC2)c2c(F)c(N3CCC(O)C3)c(F)cc2c1=O` (stereo not given) showed a melting point of 276 to 278 °C.

As to `CCOC(=O)c1c(N=Cc2cccs2)sc(N=Cc2ccc([N+](=O)[O-])s2)c1C(=O)OCC`, the melting point lay in the range of 220 to 222 °C. The molecule `CCOC(=O)Cc1c2c(nn1CC)c(=O)[nH]c1ccccc12` had a melting point of 233 to 235 °C.

`COc1cc(C=c2[nH]c(=O)c(=Cc3ccc(OCc4ccccc4)cn3)[nH]c2=O)cc(OC)c1`: the melting point was 237 to 239 °C. To `COc1ccc(C(=O)Nc2ccccc2)cc1NC(=O)C(O)c1ccccc1` (stereo not given) belongs 173 to 175 °C; to `O=C(CBr)CN1C(=O)c2ccccc2C1=O`, 139 to 141 °C; to `CC(C)=CCN(CCC12CC3CC(CC(C3)C1)C2)C(=O)NCCCc1ccncc1`, 93 to 96 °C. To `O=S(c1[nH]c(-c2ccc(Cl)cc2)c(S(=O)(=O)C(F)(F)F)c1Br)C(F)(F)F` (stereo not given) belongs 120 to 170 °C. `Cc1cc(-c2ccccc2O)nn1-c1ccccc1` yielded a melting point of 225 to 229 °C. `Cc1ccc(C#N)c(Sc2ccc(F)cc2)c1` yielded a melting point of 93 to 96 °C. For the molecule `C=CCNc1nc(NC)c2cc([N+](=O)[O-])ccc2n1`, the melting point is 211 to 212 °C. Consider `COc1cc(OC)cc(-c2ncoc2-c2ccc(OC(F)F)c(N)c2)c1`, for which the melting point turned out to be 105 °C.

For the molecule `CNC1CCN(c2nncc3cc(OC)c(OC)cc23)CC1`, the melting point lay in the range of 194 to 196 °C.

`CCOC(=O)c1cn(-c2nncs2)c2nc(Cl)c(F)cc2c1=O` returned a melting point of 201 to 203 °C. To `CCCCCCCCCCC=CCc1c[nH]c(C=O)c1` belongs 29 to 32 °C. `CC1([C@H]2CC[C@@H](O)CC2)CC1` showed a melting point of 56 to 57 °C. Then `COC(=O)c1nc(-c2ccc(C)c(C)c2)cc(N)c1Cl`, with 154 to 156 °C. As for `Cc1c(NC(=O)c2ccc(-c3ccc(Cl)s3)cc2F)ccc2cc(CN3CCCCC3)cnc12`, the melting point fell in the range of 205 to 206 °C.

`Cc1ccc(NS(=O)(=O)c2cccs2)c2[nH]c(C(=O)NCCSC(c3ccccc3)(c3ccccc3)c3ccccc3)cc12` gave a melting point of 241 to 242 °C. Consider `Cc1nc(C#CCCn2nc3ccccc3n2)sc1C`, for which the melting point lay in the range of 96 to 98 °C.

Consider `COC(=O)c1cc2c(cn1)[nH]c1ccc(Oc3ccc([N+](=O)[O-])cn3)cc12`, for which the melting point lay in the range of 150 to 155 °C.
